What all share (type): in vivo
Series [1] has as its system Myzus persicae (Green peach aphid). Description: Example B5: Myzus persicae feeding/contact activity, sunflower leaf discs. The conditions noted are these: foliar; for mortality at 200 ppm: Myzus persicae, 144 h, application rate of 200 ppm, mixed ages, 6 days after infestation, read-out: mortality; for mortality at 12.5 ppm: Concentration 12.5 ppm, Myzus persicae (feeding/contact, Example B5), read-out: Mortality (%). As for the experimental part: Sunflower leaf discs were placed onto agar in a 24-well microtiter plate and sprayed with aqueous test solutions prepared from 10,000 ppm DMSO stock solutions. After drying, the leaf discs were infested with an aphid population of mixed ages. The samples were assessed for mortality 6 days after infestation.

Series [2] shares this test system. Briefly: Example B6: Myzus persicae systemic activity, pea seedlings. The conditions noted are these: for mortality at 24 ppm: Myzus persicae, 144 h, test rate of 24 ppm, mixed ages, 6 days after placing seedlings into test solutions, read-out: mortality; for mortality at 1.5 ppm: Concentration 1.5 ppm, Myzus persicae (systemic, Example B6), read-out: Mortality (%). The method, then: Roots of pea seedlings infested with an aphid population of mixed ages were placed directly into aqueous test solutions prepared from 10,000 DMSO stock solutions. The samples were assessed for mortality 6 days after placing seedlings into test solutions.

The subject of series [3] is Euschistus heros (Neotropical Brown Stink Bug). Briefly: Example B3: Euschistus heros, soybean leaves, N2 nymphs. The note with it: for percent effect (mortality or growth inhibition) at 200 ppm: Euschistus heros, 120 h, application rate of 200 ppm, N2 nymphs, 5 days after infestation, read-out: effect in at least one of the two categories (mortality or growth inhibition); for mortality at 50 ppm: Concentration 50 ppm, Euschistus heros (Example B3), read-out: Mortality (%). As for the experimental part: Soybean leaves on agar in 24-well microtiter plates were sprayed with aqueous test solutions prepared from 10,000 ppm DMSO stock solutions. After drying the leaves were infested with N2 nymphs. The samples were assessed for mortality and growth inhibition in comparison to untreated samples 5 days after infestation.

The subject of another series is Melodoigyne incognita. Description: Example B14: Melodoigyne incognita juvenile mobility, in vitro profiling in 96 well plate. The conditions noted are these: 200 ppm; after 24 h; second stage juveniles; read-out: control (juvenile mobility). As for the experimental part:
Test solutions are prepared from 10,000 ppm DMSO stock solutions with a TECAN robot to achieve 20 μL of 1000, 200, 100, 50, 25 and 12.5 ppm. For each concentration three replicates are produced. Per well, 80 μL nematode solution is added containing 100 to 150 freshly harvested second stage juveniles of Melodoigyne incognita. The plates are covered and stored at room temperature in the dark and incubated for 24 h. Mobility of the exposed juveniles in a treated well is measured using an imaging tool and compared to an average of 12 untreated replicates.

Series [4] deals with Diabrotica Balteata (Corn Root Worm). Description: Example B2: Diabrotica balteata, maize sprouts, L2 larvae. The note with it: for percent effect (mortality or growth inhibition) at 200 ppm: Diabrotica balteata, 96 h, application rate of 200 ppm, L2 larvae, 4 days after infestation, read-out: effect in at least one of the two categories (mortality or growth inhibition). The method, then:
Maize sprouts placed onto an agar layer in 24-well microtiter plates were treated with aqueous test solutions prepared from 10,000 ppm DMSO stock solutions by spraying. After drying, the plates were infested with L2 larvae (6 to 10 per well). The samples were assessed for mortality and growth inhibition in comparison to untreated samples 4 days after infestation.

Usually mortality stands for the share of the test organisms that died.

Some results are limits rather than exact numbers.

In the case of `CCS(=O)(=O)c1cc(NC(=O)C(C)(C)O)cnc1-c1nc2cc(C(F)(F)F)ncc2n1C` [P8, N-[5-ethylsulfonyl-6-[3-methyl-6-(trifluoromethyl)imidazo[4,5-c]pyridin-2-yl]-3-pyridyl]-2-hydroxy-2-methyl-propanamide], in series [1], the mortality at 200 ppm is at least 80%. Further, the mortality at 24 ppm in series [2] is at least 80%. Further, the percent effect (mortality or growth inhibition) at 200 ppm in series [3] was at least 80%.
As to `CCS(=O)(=O)c1cc(N2CCOCC2=O)cnc1-c1nc2cc(C(F)(F)F)ncc2n1C` [P15, 4-[5-ethylsulfonyl-6-[3-methyl-6-(trifluoromethyl)imidazo[4,5-c]pyridin-2-yl]-3-pyridyl]morpholin-3-one], the mortality at 200 ppm in series [1] was at least 80%. Also, in the series with Melodoigyne incognita, the pest or weed control at 200 ppm is at least 80%. The mortality at 24 ppm in series [2] is at least 80%. Further, the percent effect (mortality or growth inhibition) at 200 ppm in series [3] is at least 80%.
In the case of `CCS(=O)(=O)c1cc(N(C)C(C)=O)ccc1-c1nc2cc(C(F)(F)F)ncc2n1C` [P16, N-[3-ethylsulfonyl-4-[3-methyl-6-(trifluoromethyl)imidazo[4,5-c]pyridin-2-yl]phenyl]-N-methyl-acetamide], the mortality at 200 ppm in series [1] is at least 80%. Further, the mortality at 24 ppm in series [2] is at least 80%. In addition, the percent effect (mortality or growth inhibition) at 200 ppm in series [3] was at least 80%.
As for `CCS(=O)(=O)c1cc(N2CCS(=O)(=O)CC2=O)cnc1-c1nc2cc(C(F)(F)F)ncc2n1C` [P18, 4-[5-ethylsulfonyl-6-[3-methyl-6-(trifluoromethyl)imidazo[4,5-c]pyridin-2-yl]-3-pyridyl]-1,1-dioxo-1,4-thiazinan-3-one], the percent effect (mortality or growth inhibition) at 200 ppm in series [3] was at least 80%.
With `CCN(C(=O)CCl)c1cnc(-c2nc3cc(C(F)(F)F)ncc3n2C)c(S(=O)(=O)CC)c1` [P20, 2-chloro-N-ethyl-N-[5-ethylsulfonyl-6-[3-methyl-6-(trifluoromethyl)imidazo[4,5-c]pyridin-2-yl]-3-pyridyl]acetamide], the mortality at 200 ppm in series [1] was at least 80%. Besides, the pest or weed control at 200 ppm in the series with Melodoigyne incognita is at least 80%. The mortality at 24 ppm in series [2] is at least 80%. In addition, the percent effect (mortality or growth inhibition) at 200 ppm in series [4] and in series [3] was at least 80% each time.
For the molecule `CCS(=O)(=O)c1cc(N(C)C(=O)CC(F)(F)F)cnc1-c1nc2cc(C(F)(F)F)ncc2n1C` [P28, N-[5-ethylsulfonyl-6-[3-methyl-6-(trifluoromethyl)imidazo[4,5-c]pyridin-2-yl]-3-pyridyl]-3,3,3-trifluoro-N-methyl-propanamide], the mortality at 200 ppm in series [1] is at least 80%. In series [2], the mortality at 24 ppm was at least 80%. Further, the percent effect (mortality or growth inhibition) at 200 ppm in series [4] and in series [3] was at least 80% in each case.
Take `CCS(=O)(=O)c1cc(N(C)C(=O)CCS(C)(=O)=O)cnc1-c1nc2cc(C(F)(F)F)ncc2n1C` [P31, N-[5-ethylsulfonyl-6-[3-methyl-6-(trifluoromethyl)imidazo[4,5-c]pyridin-2-yl]-3-pyridyl]-N-methyl-3-methylsulfonyl-propanamide]: in series [1], the mortality at 200 ppm is at least 80%. In addition, the percent effect (mortality or growth inhibition) at 200 ppm in series [3] was at least 80%.
As to `CCC(=O)N(CC(F)(F)F)c1cnc(-c2nc3cc(C(F)(F)F)ncc3n2C)c(S(=O)(=O)CC)c1` [P32, N-[5-ethylsulfonyl-6-[3-methyl-6-(trifluoromethyl)imidazo[4,5-c]pyridin-2-yl]-3-pyridyl]-N-(2,2,2-trifluoroethyl)propanamide], the mortality at 200 ppm in series [1] was at least 80%. Further, in series [2], the mortality at 24 ppm was at least 80%. Further, the percent effect (mortality or growth inhibition) at 200 ppm in series [4] and in series [3] was at least 80% throughout.
On to `CCSc1cc(N(C)C(C)=O)cnc1-c1nc2cc(C(F)(F)F)ncc2n1C` [P33, N-[5-ethylsulfanyl-6-[3-methyl-6-(trifluoromethyl)imidazo[4,5-c]pyridin-2-yl]-3-pyridyl]-N-methyl-acetamide], for which the mortality at 200 ppm in series [1] was at least 80%. Further, the percent effect (mortality or growth inhibition) at 200 ppm in series [3] is at least 80%.
For the molecule `CCS(=O)(=O)c1cc(N2CCNC2=O)cnc1-c1nc2cc(C(F)(F)F)ncc2n1C` [P36, 1-[5-ethylsulfonyl-6-[3-methyl-6-(trifluoromethyl)imidazo[4,5-c]pyridin-2-yl]-3-pyridyl]imidazolidin-2-one], in series [1], the mortality at 200 ppm was at least 80% and the mortality at 12.5 ppm was found to be 90%. In the series on Melodoigyne incognita, the pest or weed control at 200 ppm was at least 80%. In series [2], the mortality at 1.5 ppm was 100% and the mortality at 24 ppm was at least 80%. In series [3], the mortality at 50 ppm worked out at 100% and the percent effect (mortality or growth inhibition) at 200 ppm is at least 80%.
As to `CCS(=O)(=O)c1cc(N2CCN(C)C2=O)cnc1-c1nc2cc(C(F)(F)F)ncc2n1C` [P37, 1-[5-ethylsulfonyl-6-[3-methyl-6-(trifluoromethyl)imidazo[4,5-c]pyridin-2-yl]-3-pyridyl]-3-methyl-imidazolidin-2-one], in series [1], the mortality at 200 ppm is at least 80% and the mortality at 12.5 ppm amounted to 90%. Besides, the pest or weed control at 200 ppm in the series on Melodoigyne incognita was at least 80%. For the same molecule, in series [2], the mortality at 1.5 ppm was determined as 100% and the mortality at 24 ppm is at least 80%. For the same molecule, in series [3], the mortality at 50 ppm was 100% and the percent effect (mortality or growth inhibition) at 200 ppm is at least 80%.
As for `CCS(=O)(=O)c1cc(NC(=O)C(C)(C)C)cnc1-c1nc2cc(C(F)(F)F)ncc2n1C` [P39, N-[5-ethylsulfonyl-6-[3-methyl-6-(trifluoromethyl)imidazo[4,5-c]pyridin-2-yl]-3-pyridyl]-2,2-dimethyl-propanamide], the mortality at 200 ppm in series [1] was at least 80%. The pest or weed control at 200 ppm in the series with Melodoigyne incognita was at least 80%. In addition, the mortality at 24 ppm in series [2] is at least 80%. Further, the percent effect (mortality or growth inhibition) at 200 ppm in series [3] was at least 80%.
As to `CCS(=O)(=O)c1cc(N(C)C(=O)CCSC)cnc1-c1nc2cc(C(F)(F)F)ncc2n1C` [P41, N-[5-ethylsulfonyl-6-[3-methyl-6-(trifluoromethyl)imidazo[4,5-c]pyridin-2-yl]-3-pyridyl]-N-methyl-3-methylsulfanyl-propanamide], the mortality at 200 ppm in series [1] was at least 80%. Moreover, in the series on Melodoigyne incognita, the pest or weed control at 200 ppm is at least 80%. In series [3], the percent effect (mortality or growth inhibition) at 200 ppm is at least 80%.
For `CCS(=O)(=O)c1cc(NC(=O)C(F)(F)F)cnc1-c1nc2cc(C(F)(F)F)ncc2n1C` [P44, N-[5-ethylsulfonyl-6-[3-methyl-6-(trifluoromethyl)imidazo[4,5-c]pyridin-2-yl]-3-pyridyl]-2,2,2-trifluoro-acetamide], in series [1], the mortality at 200 ppm is at least 80%. In addition, the pest or weed control at 200 ppm in the series on Melodoigyne incognita was at least 80%. Moreover, the percent effect (mortality or growth inhibition) at 200 ppm in series [4] and in series [3] was at least 80% in each case.
On to `CCSc1cc(N(C(C)=O)C(C)C)cnc1-c1nc2cc(C(F)(F)F)ncc2n1C` [P47, N-[5-ethylsulfanyl-6-[3-methyl-6-(trifluoromethyl)imidazo[4,5-c]pyridin-2-yl]-3-pyridyl]-N-isopropyl-acetamide], for which the percent effect (mortality or growth inhibition) at 200 ppm in series [3] was at least 80%.
Take `CCS(=O)(=O)c1cc(NC(C)=O)cnc1-c1nc2cc(C(F)(F)F)ncc2n1C` [drawing 155, reference compound]: the “Mortality (%)” value in series [4] (Concentration 200 ppm, Diabrotica balteata (Example B2)) is given as 0%.
Turning to `CCS(=O)(=O)c1cc(NC(=O)C2CC2)cnc1-c1nc2cc(C(F)(F)F)cnc2n1C` [reference compound], the mortality at 1.5 ppm in series [2] came to 0%.
For the molecule `CCS(=O)(=O)c1cc(-n2ccccc2=O)cnc1-c1nc2cc(C(F)(F)F)ncc2n1C` [reference compound], in series [1], the mortality at 12.5 ppm was determined as 0%. The mortality at 1.5 ppm in series [2] is 0%. Besides, the mortality at 50 ppm in series [3] turned out to be 50%.
`CCS(=O)(=O)c1ccc(N2CCN(C)C2=O)nc1-c1nc2cc(C(F)(F)F)ncc2n1C` [reference compound]: in series [1], the mortality at 12.5 ppm came to 80%. The mortality at 1.5 ppm in series [2] was 0%. Moreover, in series [3], the mortality at 50 ppm was 50%.

The record behind these values is US20210047291A1, “PESTICIDALLY ACTIVE HETEROCYCLIC DERIVATIVES WITH SULFUR CONTAINING SUBSTITUENTS” (SYNGENTA PARTICIPATIONS AG, priority 2018, published 2021).
